Legend:
[1] = tested on: Western corn rootworm larvae (Diabrotica virgifera virgifera); test: Seed treatment of field corn seeds, Western corn rootworm larval mortality; assay type: in vivo; conditions: corn seed treatment at the rate printed in the row (fipronil 0.005, clothianidin 0.05 g a.i./100 kg seed); 2nd instar larvae; mortality 1 day after infestation, adjusted for untreated controls
Method: (§1) Each mixture partner has been evaluated separately at the same rates as used in the mixtures. Synergism was determined by comparing the expected biological effect on plant health or on disease control from the mixture based on the individual effects from the separate partners to the biological effect observed with the mixture. Abbott's formula has be used to make this comparison.
Field corn seeds (Zea mays) were treated with a mixture of commercially available fipronil SC formulation (REGENT® 4 SC—479 g a.i./L) at rates of 0.005 g ai/100 kg seed with commercially available clothianidin formulation (PONCHO® 600—600 g a.i./L) at 0.05 g ai/100 kg seed. In addition, there was a treatment with each mixture partner at its respective solo rate. The carrier for all treatments was water. The respective formulation(s) and water were mixed in a 20 ml vial. Then 25 seeds were added, and the vial was vortexed. After treatment, seeds were allowed to dry. […] Petri plates were incubated at 26° C., and insect mortality was evaluated 1 day later. Percent mortalities were calculated adjusting for any mortality in the untreated controls.
The expected percent mortality for the mixture was calculated based on the percent mortalities observed when each mixture partner was applied solo at the rate it was applied in the mixture using Abbott's formula as follows: […]

[2] = tested on: Colorado potato beetle larvae (Leptinotarsa decemlineata); test: Foliar insecticidal activity on eggplant, Colorado potato beetle feeding damage; assay type: in vivo; conditions: foliar spray on eggplant at 0.05 ppm each; 2nd instar larvae; evaluated 3 days later, relative to untreated controls
Method: as §1
The foliage of eggplant plants (Solanum melongena, variety Black Beauty) at the 4th to 5th true-leaf stage was treated with a mixture of commercially available fipronil SC formulation (REGENT® 4 SC, 479 g a.i./L-) at 0.05 ppm with commercially available clothianidin formulation (PONCHO® 600, 600 g a.i./L) at 0.05 ppm. In addition, there was a treatment with each mixture partner at its respective solo rate. Treatment was by spraying the leaves to near run-off. The carrier for all treatments was water. Two leaves on each of three plants were sprayed per treatment. […] Insect feeding damage to the foliage was evaluated 3 days later. Percent reductions in insect feeding damage were calculated based on the untreated controls.
The expected reduction in feeding damage for the mixture was calculated based on the percent reductions observed when each mixture partner was applied solo at the rate it was applied in the mixture using Abbott's formula as follows: […]

| Structure (SMILES) | Actual Mixture Response [% Larval Mortality] [1] [%] | Actual Mixture Response [% Reduction in Insect Feeding Injury] [2] [%] |
| --- | --- | --- |
| CN/C(=N\[N+](=O)[O-])NCc1cnc(Cl)s1 [Clothianidin, clothianidin] | 14 | 21 |
| N#Cc1nn(-c2c(Cl)cc(C(F)(F)F)cc2Cl)c(N)c1[S+]([O-])C(F)(F)F (stereo not shown) [Fipronil, fipronil] | 0 | 0 |

Source: US20080161367A1, “Insecticidal Mixtures” (BASF Aktiengesellschaft, priority 2005, published 2008)
